Entries after “also recorded” stand apart in the source; their conditions may differ.
Legend:
Format in all cases: cell-based, human
[1] = system: KG1a, KG1, HL60 and U937 cells; assay: Cell cycle analysis (propidium iodide, flow cytometry) of leukaemic cell lines (Example 1)
Description: Cells to be investigated were harvested and washed in PBS at 400 g for 10 min. Pelleted cells were then fixed in ice-cold 70% ethanol. Fixed cells were subsequently washed twice in PBS (600 g; 10 min) and incubated in 100 μl of ribonuclease (100 μg/ml; Sigma Aldrich) for 5 min (room temperature) prior to addition of 400 μl of propidium iodide (50 μg/ml; Sigma Aldrich) and 30 minutes incubation (37° C.). Cells were then analysed for cell cycle status on FACScan flow cytometer (Becton Dickinson, USA) and using WinMDI and Cylchred softwares.

[2] = system: KG1a, HL60 and U937 cells; assay: Cell cycle of leukaemic cell lines synchronised in G0-G1 with L-mimosine; details: HL60 and U937 synchronised in G0-G1, over 48 hours, vs control peptide
Description: The proportion of KG1a, HL60 and U937 cells in G0-G1 phase of the cell cycle upon HXP peptide treatment was compared to CXP4. Cells were synchronised in G0-G1 phase of the cell cycle by exposure to 0.5 mM L-mimosine. Results are expressed as the mean percentage of four experiments (+/−SE).
KG1a, HL60 and U937 cell cycle profiles were analysed over 48 hours in culture with HXP peptide or the control peptide (FIG. 10). The effect of HXP peptide on non-synchronised cells varied considerably (data not shown).

AC133+ cells [3] = assay: RT-PCR of CD38 and HOX genes in AC133+ cells
Description: Total RNA was extracted from cultured human cells using the Rneasy mini kit (Quiagen) and following the manufacturer's instructions. 3 μg of RNA was used in subsequent reverse transcription reactions. The RNA was mixed with a poly T15 oligo to 5 microgrammes/ml and heated to 75° C. for 5 minutes. After cooling on ice, the following additional reagents were added; dNTPs to 0.4 mM, RNase OUT (Promega) to 1.6 U/μl, Moloney Murine Leukemia Virus Reverse Transcriptase (M-MLRvT) RnaseH— point mutant (Promega) to 8 U/μl and the appropriate buffer (supplied by the manufacturer) to x1 concentration. The mixture was incubated for one hour at 37° C., heated to 70° C. for two minutes and cooled on ice.
PCR reactions were all performed in a total volume of 40 μl. For each we used 1 μl of the M-MLRvT reaction (as described above), 0.2 nmols of each primer and 20 microliters of Redimix pre-mixed PCR components (Sigma). All reactions were cycled at 94° C. for 30 seconds, 55° C. for 30 seconds and 72° C. for 60 seconds. 30 cycles were used for all primer sets except those for beta-actin, for which 23 cycles were used.

[4] = system: Hox genes in malignant cell lines; assay: RT-PCR of HOX gene expression in malignant cell lines; details: 20 μg/ml, at least two different Hox genes in each case
Description: A number of cell lines representing different malignancies were grown in culture for seven days, and HXP peptide or the control peptide CXP were added to a final concentration of 20 μg/ml on day 3. The bars represent the fold increase of each cell line over the seven days; the empty, dashed bars indicate the CXP peptide treated cells, whilst the solid bars indicate the addition of HXP peptide. Error bars represent the standard error the mean, and n is the number of experiments performed. The cell lines used were: AML—KG1a; Bladder—HT; Breast—SKBR3; Cervical—HeLa; Colon—Colo41; Gastric—MKN-45; Large cell lung cancer—MES; Melanoma—DX3; Ovarian—1847; Pancreatic—Panc-Tu1; Prostate—LNCAP; Renal—HT1376; Small cell lung cancer—NCI-h510A. The change in the expression of the HOX genes expressed by each cell line was assessed by RT-PCR on RNA extracted from the cells at the end of seven days. ‘HOX gene inactivated’ means that the level of expression of each of the listed HOX genes was at least five fold lower in the HXP peptide treated cells compared to the control. *Analysis not yet complete.
The sequences of RT-PCR primers used are set out below. For each primer pair, the amplified region is given in relation to the known gene sequence as available through GenBank (http://www.ncbi.nlm.nih.gov/entrez).

AC133+ cells [5] = assay: Short-term ex-vivo AC133+ cell expansion culture with HXP peptide, trypan blue cell count
Description: Umbilical Cord Blood (UCB) specimens were collected from full-term deliveries scheduled for elective caesarian sections following hospital ethical regulations.
Samples were diluted 1 in 4 in PBS supplemented with a citrate-based anti-coagulant (0.6% ACD-A, Baxter, France) and Bovine Serum Albumin (0.5% fraction V, Sigma Aldrich, UK) at pH=7.4 and referenced as “ACD-A buffer”. Diluted UCB was carefully overlaid in a 1:4 ratio onto a research grade Ficoll-Paque solution (d:1.077 g/cm^3, Pharmacia Biotech, Sweden) prior to Centrifugation (400 g, 30 minutes, 22° C.). The mononuclear cells (MNC) layer was extracted, washed twice in ACD-A Buffer, pelleted (400 g, 10 minutes) before resuspending in ACD-A buffer and cell aliquots taken for cell viability/enumeration using trypan blue (Sigma Aldrich).
AC133+ cells were obtained from MNC after immunomagnetic separation using the AC133 mini-MACS selection kit (Miltenyi Biotec, Germany): labelling volume 500 μl/10^8 cells in ACD-A buffer containing Fc Receptor-blocking reagent (100 μl, 5 min incubation, 4° C.) before adding colloidal super-paramagnetic MACS MicroBeads conjugated to monoclonal mouse anti-human AC133/1 antibody (100 μl IgG1 isotype, 25 min incubation, 4° C.). Cells were then washed (5 ml ACD-A buffer, 400 g, 10 min, 4° C.) before resuspended cells in 500 μl ACD-A buffer were applied to a chilled MACS positive selection column (MS+/RS+) on a magnet. The column was rinsed with cool ACD-A buffer (4×500 μl) and the AC133− cell population retained at 4° C. After magnet removal AC133+ cells were eluted with 1 ml of cold ACD-A buffer. The AC133+ cell fraction was reapplied to a new column, prior to cell enumeration and viability assays.
AC133+ cells were seeded in duplicate in liquid culture system at 2-4×10^4 cells/ml. […] Cultured cells were then counted at various time points using trypan blue exclusion method described above.

With “WYPWMKKHHRQIKIWFQNRRMKWKK [HXP peptide]” as the substance, how does the “effect on cell cycle of more mature leukaemic cells” value ([1]; HL60 and U937) read?
The value was “slowed”.

And the “effect on cell cycle of immature leukaemic cells” value ([1]; KG1 and KG1a)?
The value was “may be propelled into the cell cycle”.

And the “proportion of cells leaving phase G0-G1 and entering the cell cycle” value [2]?
Its value is “induces a significantly higher proportion of cells to leave the phase G0-G1 and enter the cell cycle”.

What about the CD38 gene expression (AC133+ cells [3]) of the same substance?
The CD38 gene expression was “up-regulation”.

What about the “HOX B4, B8 and A9 gene expression” value (AC133+ cells [3]; from as early as day 3) of the same substance?
Its value is “down-regulated”.

What about the “Hox gene expression in each cancer cell line with reduced proliferation” value [4] of the same substance?
Its value is “transcriptionaly silenced”.

What about the “cell growth of AC133+ cells” value (AC133+ cells [5]; 20 μg/ml, TPOFLK supplemented liquid culture) of the same substance?
Its value is “slowing their growth; also recorded: slowed”.

And the “AC133+ cell proliferation after withdrawal of HXP peptide” value (AC133+ cells [5]; withdrawal at 7 days)?
Its value is “started to proliferate again”.

From patent publication US7728105B2, “Peptides impairing PBX dependent gene regulation” (St. George's Hospital Medical School, priority 2002, dated 2010)
